Patent publication US20210317134A1, “UBIQUITIN-SPECIFIC-PROCESSING PROTEASE 7 (USP7) MODULATORS AND USES THEREOF” (RAPT THERAPEUTICS, INC., priority 2019, published 2021)

Target: USP7 (Homo sapiens, UniProt Q93009)
Assay: USP7 inhibitory potency (Table 1)
Assay type: biochemical

USP7, sequence (Q93009 whole entry): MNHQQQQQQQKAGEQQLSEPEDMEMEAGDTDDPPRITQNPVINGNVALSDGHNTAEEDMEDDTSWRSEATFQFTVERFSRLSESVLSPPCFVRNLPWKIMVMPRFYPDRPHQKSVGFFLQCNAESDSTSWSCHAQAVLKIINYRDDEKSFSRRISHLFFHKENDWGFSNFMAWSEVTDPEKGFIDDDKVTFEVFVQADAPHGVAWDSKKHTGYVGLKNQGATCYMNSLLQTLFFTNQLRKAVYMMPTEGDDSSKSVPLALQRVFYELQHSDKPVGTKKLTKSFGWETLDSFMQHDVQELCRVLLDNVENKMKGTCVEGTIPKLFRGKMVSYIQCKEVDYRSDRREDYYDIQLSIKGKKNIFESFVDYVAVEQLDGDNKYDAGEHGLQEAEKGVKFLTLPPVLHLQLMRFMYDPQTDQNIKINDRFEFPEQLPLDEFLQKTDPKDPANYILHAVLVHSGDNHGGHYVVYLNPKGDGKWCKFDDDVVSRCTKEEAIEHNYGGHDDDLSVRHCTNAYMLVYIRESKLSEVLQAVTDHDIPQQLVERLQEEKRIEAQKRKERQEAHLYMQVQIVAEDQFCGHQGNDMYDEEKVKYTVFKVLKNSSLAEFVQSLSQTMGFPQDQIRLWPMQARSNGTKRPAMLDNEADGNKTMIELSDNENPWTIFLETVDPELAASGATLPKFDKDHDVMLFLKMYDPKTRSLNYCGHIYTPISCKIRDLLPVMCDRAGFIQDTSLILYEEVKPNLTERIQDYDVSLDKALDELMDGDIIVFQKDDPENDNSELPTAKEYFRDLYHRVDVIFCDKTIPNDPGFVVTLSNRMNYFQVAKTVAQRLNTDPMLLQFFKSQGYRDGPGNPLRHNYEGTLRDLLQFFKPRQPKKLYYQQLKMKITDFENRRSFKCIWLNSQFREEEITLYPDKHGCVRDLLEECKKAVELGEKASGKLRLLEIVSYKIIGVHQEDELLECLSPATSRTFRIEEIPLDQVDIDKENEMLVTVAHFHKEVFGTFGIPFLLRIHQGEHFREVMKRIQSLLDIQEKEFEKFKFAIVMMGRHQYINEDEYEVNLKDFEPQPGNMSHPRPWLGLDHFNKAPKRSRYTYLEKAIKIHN

IC50 [µM]	SMILES
< 1	Cn1nc2c(c1[C@H]1Cc3cc(Cl)cc(-c4ncnc5cc(Cl)ccc45)c3O1)CNCC2 [(R)-7-chloro-4-(5-chloro-2-(2-methyl-4,5,6,7-tetrahydro-2H-pyrazolo[4,3-c]pyridin-3-yl)-2,3-dihydrobenzofuran-7-yl)quinazoline]
10 to 30	Cc1cc(-c2cc(Cl)cc3c2O[C@@H](c2onc4c2CNCC4)C3)c2ccc(C#N)cc2n1 [(R)-4-(5-chloro-2-(4,5,6,7-tetrahydroisoxazolo[4,3-c]pyridin-3-yl)-2,3-dihydrobenzofuran-7-yl)-2-methylquinoline-7-carbonitrile]
1 to 10	NCc1cc(-c2cc(Cl)cc3c2O[C@@H](c2onc4c2CNCC4)C3)c2ccccc2n1 [(R)-(4-(5-chloro-2-(4,5,6,7-tetrahydroisoxazolo[4,3-c]pyridin-3-yl)-2,3-dihydrobenzofuran-7-yl)quinolin-2-yl)methanamine]
< 1	NCc1cc2nccc(-c3cc(Cl)cc4c3O[C@@H](C(=O)N3CCNCC3)C4)c2s1 [(R)-(7-(2-(aminomethyl)thieno[3,2-b]pyridin-7-yl)-5-chloro-2,3-dihydrobenzofuran-2-yl)(piperazin-1-yl)methanone]
< 1	O=C([C@H]1Cc2cc(Cl)cc(-c3ccnc4cc(CO)sc34)c2O1)N1CCn2ccnc2C1 [(R)-(5-chloro-7-(2-(hydroxymethyl)thieno[3,2-b]pyridin-7-yl)-2,3-dihydrobenzofuran-2-yl)(5,6-dihydroimidazo[1,2-a]pyrazin-7(8H)-yl)methanone]
1 to 10	CS(=O)(=O)NCc1ccc2c(-c3cc(Cl)cc4c3O[C@@H](c3onc5c3CNCC5)C4)ccnc2c1 [(R)-N-((4-(5-chloro-2-(4,5,6,7-tetrahydroisoxazolo[4,3-c]pyridin-3-yl)-2,3-dihydrobenzofuran-7-yl)quinolin-7-yl)methyl)methanesulfonamide]
< 1	CC(=O)NCc1cc2nccc(-c3cc(Cl)cc4c3O[C@@H](C(=O)N3CCNCC3)C4)c2s1 [(R)-N-((7-(5-chloro-2-(piperazine-1-carbonyl)-2,3-dihydrobenzofuran-7-yl)thieno[3,2-b]pyridin-2-yl)methyl)acetamide]
< 1	CN(C)S(=O)(=O)NCCc1cc2nccc(-c3cc(Cl)cc4c3O[C@@H](C(=O)N3CCNCC3)C4)c2s1 [(R)-N-(2-(7-(5-chloro-2-(piperazine-1-carbonyl)-2,3-dihydrobenzofuran-7-yl)thieno[3,2-b]pyridin-2-yl)ethyl)dimethylamimosulfonylurea]
< 1	Cn1nc2c(c1[C@H]1Cc3cc(Cl)cc(-c4ncnc5ccsc45)c3O1)CNCC2 [(R)-4-(5-chloro-2-(2-methyl-4,5,6,7-tetrahydro-2H-pyrazolo[4,3-c]pyridin-3-yl)-2,3-dihydrobenzofuran-7-yl)thieno[3,2-d]pyrimidine]
< 1	CCC(O)c1cc2ncnc(-c3cc(Cl)cc4c3O[C@@H](c3onc5c3CNCC5)C4)c2s1 (stereo partly drawn) [drawing 1579, 1-(4-((R)-5-chloro-2-(4,5,6,7-tetrahydroisoxazolo[4,3-c]pyridin-3-yl)-2,3-dihydrobenzofuran-7-yl)thieno[3,2-d]pyrimidin-6-yl)propan-1-ol]
< 1	CC(=O)NCc1cc2nccc(-c3cc(Cl)cc4c3O[C@@H](c3c5c(nn3C)CCNC5)C4)c2s1 [(R)-N-((7-(5-chloro-2-(2-methyl-4,5,6,7-tetrahydro-2H-pyrazolo[4,3-c]pyridin-3-yl)-2,3-dihydrobenzofuran-7-yl)thieno[3,2-b]pyridin-2-yl)methyl)acetamide]
< 1	CN(C)C1CCN(C(=O)[C@H]2Cc3cc(Cl)cc(-c4ccnc5ccsc45)c3O2)CC1 [(R)-(5-chloro-7-(thieno[3,2-b]pyridin-7-yl)-2,3-dihydrobenzofuran-2-yl)(4-(dimethylamino)piperidin-1-yl)methanone]

Further lines, the compound ahead of its results:

SMILES	IC50 [µM]
CCC(O)(CC)C1Cc2nccc(-c3cc(Cl)cc4c3O[C@@H](c3onc5c3CNCC5)C4)c2C1 (stereo partly drawn) [3-(4-((R)-5-chloro-2-(4,5,6,7-tetrahydroisoxazolo[4,3-c]pyridin-3-yl)-2,3-dihydrobenzofuran-7-yl)-6,7-dihydro-5H-cyclopenta[b]pyridin-6-yl)pentan-3-ol]	1 to 10
CCC(O)c1cc2ncnc(-c3cc(Cl)cc4c3O[C@@H](c3ocnc3CNCC(F)(F)F)C4)c2s1 (stereo partly drawn) [1-(4-((R)-5-chloro-2-(4-(((2,2,2-trifluoroethyl)amino)methyl)oxazol-5-yl)-2,3-dihydrobenzofuran-7-yl)thieno[3,2-d]pyrimidin-6-yl)propan-1-ol]	10 to 30
C[C@@H]1CCN(Cc2cc3nccc(-c4cc(Cl)cc5c4O[C@@H](C(=O)N4CCNCC4)C5)c3s2)C1=O [(R)-1-((7-((R)-5-chloro-2-(piperazine-1-carbonyl)-2,3-dihydrobenzofuran-7-yl)thieno[3,2-b]pyridin-2-yl)methyl)-3-methylpyrrolidin-2-one]	< 1
OCCN1CCc2noc([C@H]3Cc4cc(Cl)cc(-c5ncnc6ccoc56)c4O3)c2C1 [(R)-2-(3-(5-chloro-7-(furo[3,2-d]pyrimidin-4-yl)-2,3-dihydrobenzofuran-2-yl)-6,7-dihydroisoxazolo[4,3-c]pyridin-5(4H)-yl)ethan-1-ol]	1 to 10
O=C(C1Cc2cc(Cl)cc(-c3ccnc4ccncc34)c2O1)N1CCNCC1 (stereo not drawn) [(5-chloro-7-(1,6-naphthyridin-4-yl)-2,3-dihydrobenzofuran-2-yl)(piperazin-1-yl)methanone]	10 to 30
O=C(C1Cc2cc(Cl)cc(-c3ccnc4[nH]c(CO)cc34)c2O1)N1CCNCC1 (stereo not drawn) [(5-chloro-7-(2-(hydroxymethyl)-1H-pyrrolo[2,3-b]pyridin-4-yl)-2,3-dihydrobenzofuran-2-yl)(piperazin-1-yl)methanone]	< 1
NC(=O)c1cc2nccc(-c3cc(Cl)cc4c3OC(C(=O)N3CCNCC3)C4)c2s1 (stereo not drawn) [7-(5-chloro-2-(piperazine-1-carbonyl)-2,3-dihydrobenzofuran-7-yl)thieno[3,2-b]pyridine-2-carboxamide]	1 to 10
O=C1CCC(c2cc3nccc(-c4cc(Cl)cc5c4O[C@@H](c4onc6c4CNCC6)C5)c3s2)N1 (stereo partly drawn) [5-(7-((R)-5-chloro-2-(4,5,6,7-tetrahydroisoxazolo[4,3-c]pyridin-3-yl)-2,3-dihydrobenzofuran-7-yl)thieno[3,2-b]pyridin-2-yl)pyrrolidin-2-one]	1 to 10
O=C([C@H]1Cc2cc(Cl)cc(-c3ccnc4cc(CN5C(=O)c6ccccc6C5=O)sc34)c2O1)N1CCNCC1 [(R)-2-((7-(5-chloro-2-(piperazine-1-carbonyl)-2,3-dihydrobenzofuran-7-yl)thieno[3,2-b]pyridin-2-yl)methyl)isoindoline-1,3-dione]	< 1
CC(O)c1ccc2c(-c3cc(Cl)cc4c3O[C@@H](c3onc5c3CNCC5)C4)ccnc2c1 (stereo partly drawn) [1-(4-((R)-5-chloro-2-(4,5,6,7-tetrahydroisoxazolo[4,3-c]pyridin-3-yl)-2,3-dihydrobenzofuran-7-yl)quinolin-7-yl)ethan-1-ol]	< 1
FC(F)(F)c1ccc2c(-c3cc(Cl)cc4c3O[C@@H](c3onc5c3CNCC5)C4)ccnc2c1 [(R)-3-(5-chloro-7-(7-(trifluoromethyl)quinolin-4-yl)-2,3-dihydrobenzofuran-2-yl)-4,5,6,7-tetrahydroisoxazolo[4,3-c]pyridine]	1 to 10
COc1ccc(CN2C(=O)CN(Cc3cc4nccc(-c5cc(Cl)cc6c5O[C@@H](C(=O)N5CCNCC5)C6)c4s3)C2=O)cc1 [(R)-1-((7-(5-chloro-2-(piperazine-1-carbonyl)-2,3-dihydrobenzofuran-7-yl)thieno[3,2-b]pyridin-2-yl)methyl)-3-(4-methoxybenzyl)imidazolidine-2,4-dione]	< 1
CCCC(O)c1cc2nccc(-c3cc(Cl)cc4c3O[C@@H](c3onc5c3CNCC5)C4)c2s1 (stereo partly drawn) [1-(7-((R)-5-chloro-2-(4,5,6,7-tetrahydroisoxazolo[4,3-c]pyridin-3-yl)-2,3-dihydrobenzofuran-7-yl)thieno[3,2-b]pyridin-2-yl)butan-1-ol]	< 1
CCC(O)c1cc2nccc(-c3cc(Cl)cc4c3O[C@@H](c3ocnc3CN3CCCC3)C4)c2s1 (stereo partly drawn) [1-(7-((R)-5-chloro-2-(4-(pyrrolidin-1-ylmethyl)oxazol-5-yl)-2,3-dihydrobenzofuran-7-yl)thieno[3,2-b]pyridin-2-yl)propan-1-ol]	< 1
O=C(C1Cc2cc(Cl)cc(-c3ccnc4[nH]ccc34)c2O1)N1CCC(N2CCOCC2)CC1 (stereo not drawn) [(5-chloro-7-(1H-pyrrolo[2,3-b]pyridin-4-yl)-2,3-dihydrobenzofuran-2-yl)(4-morpholinopiperidin-1-yl)methanone]	1 to 10
O=C([C@H]1Cc2cc(Cl)cc(-c3ncnc4cc(CN5C(=O)CCC5=O)sc34)c2O1)N1CCNCC1 [(R)-1-((4-(5-chloro-2-(piperazine-1-carbonyl)-2,3-dihydrobenzofuran-7-yl)thieno[3,2-d]pyrimidin-6-yl)methyl)pyrrolidine-2,5-dione]	< 1
CC1CC(=O)N(Cc2cc3nccc(-c4cc(Cl)cc5c4O[C@@H](C(=O)N4CCNCC4)C5)c3s2)C1 (stereo partly drawn) [1-((7-((R)-5-chloro-2-(piperazine-1-carbonyl)-2,3-dihydrobenzofuran-7-yl)thieno[3,2-b]pyridin-2-yl)methyl)-4-methylpyrrolidin-2-one]	< 1
CCC(O)c1ccc2c(-c3cc(Cl)cc4c3O[C@@H](c3onc5c3CNCC5)C4)ccnc2c1 (stereo partly drawn) [1-(4-((R)-5-chloro-2-(4,5,6,7-tetrahydroisoxazolo[4,3-c]pyridin-3-yl)-2,3-dihydrobenzofuran-7-yl)quinolin-7-yl)propan-1-ol]	1 to 10
Clc1cc2c(c(-c3ccnc4ccccc34)c1)O[C@@H](c1onc3c1CNCC3)C2 [(R)-3-(5-chloro-7-(quinolin-4-yl)-2,3-dihydrobenzofuran-2-yl)-4,5,6,7-tetrahydroisoxazolo[4,3-c]pyridine]	< 1
O=C(C1Cc2cc(Cl)cc(-c3ccnc4[nH]c(Cc5ccccc5)cc34)c2O1)N1CCNCC1 (stereo not drawn) [(7-(2-benzyl-1H-pyrrolo[2,3-b]pyridin-4-yl)-5-chloro-2,3-dihydrobenzofuran-2-yl)(piperazin-1-yl)methanone]	1 to 10
CC[C@@H](O)c1cc2nccc(-c3cc(Cl)cc4c3O[C@@H](c3onc5c3CNCC5)C4)c2s1 [(R)-1-(7-((R)-5-chloro-2-(4,5,6,7-tetrahydroisoxazolo[4,3-c]pyridin-3-yl)-2,3-dihydrobenzofuran-7-yl)thieno[3,2-b]pyridin-2-yl)propan-1-ol]	< 1
